As usually defined, the Kd is a measure of binding affinity in units of concentration. Read a high Kd as lower affinity. For orientation: Ki means a dissociation constant, usually derived from enzyme kinetics or from competition with a known ligand. Read a low Ki as tighter binding.

Drawing on ChEMBL document CHEMBL2069257, “A fluorescent reporter of ATP binding-competent receptor kinases” (Bioorg Med Chem Lett, 2012), this text covers inhibition, Kd and Ki for 2 molecules.

The target in assay [1] is Proto-oncogene tyrosine-protein kinase Src (Homo sapiens) (UniProt P12931). The assay can be described thus: Inhibition of SRC using biotinylated HNRNPK as substrate at 0.2 to 6 uM by blotting method.
Sequence of Proto-oncogene tyrosine-protein kinase Src (Homo sapiens) (P12931 2-536 limits assumed): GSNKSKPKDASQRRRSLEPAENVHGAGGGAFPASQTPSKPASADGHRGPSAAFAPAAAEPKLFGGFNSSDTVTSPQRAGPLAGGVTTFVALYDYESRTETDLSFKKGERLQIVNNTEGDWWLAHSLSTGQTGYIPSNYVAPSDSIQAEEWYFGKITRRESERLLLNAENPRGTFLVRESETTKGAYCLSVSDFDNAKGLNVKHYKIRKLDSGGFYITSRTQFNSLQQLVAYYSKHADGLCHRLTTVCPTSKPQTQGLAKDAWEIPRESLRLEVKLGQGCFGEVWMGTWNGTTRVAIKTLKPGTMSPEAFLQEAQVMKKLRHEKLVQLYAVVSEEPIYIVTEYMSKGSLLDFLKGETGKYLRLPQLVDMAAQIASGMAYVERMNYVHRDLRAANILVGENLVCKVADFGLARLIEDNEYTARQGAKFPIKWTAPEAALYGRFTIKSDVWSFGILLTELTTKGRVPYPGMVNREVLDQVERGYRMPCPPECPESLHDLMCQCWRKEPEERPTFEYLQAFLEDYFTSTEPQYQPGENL
In assay [2] the target is T1, Receptor tyrosine-protein kinase erbB-2 (Homo sapiens, UniProt P04626). The experiment in a line: Binding affinity to full-length/His-tagged ERBB2 UV-vis emission spectroscopy.
T1 sequence (P04626 whole entry): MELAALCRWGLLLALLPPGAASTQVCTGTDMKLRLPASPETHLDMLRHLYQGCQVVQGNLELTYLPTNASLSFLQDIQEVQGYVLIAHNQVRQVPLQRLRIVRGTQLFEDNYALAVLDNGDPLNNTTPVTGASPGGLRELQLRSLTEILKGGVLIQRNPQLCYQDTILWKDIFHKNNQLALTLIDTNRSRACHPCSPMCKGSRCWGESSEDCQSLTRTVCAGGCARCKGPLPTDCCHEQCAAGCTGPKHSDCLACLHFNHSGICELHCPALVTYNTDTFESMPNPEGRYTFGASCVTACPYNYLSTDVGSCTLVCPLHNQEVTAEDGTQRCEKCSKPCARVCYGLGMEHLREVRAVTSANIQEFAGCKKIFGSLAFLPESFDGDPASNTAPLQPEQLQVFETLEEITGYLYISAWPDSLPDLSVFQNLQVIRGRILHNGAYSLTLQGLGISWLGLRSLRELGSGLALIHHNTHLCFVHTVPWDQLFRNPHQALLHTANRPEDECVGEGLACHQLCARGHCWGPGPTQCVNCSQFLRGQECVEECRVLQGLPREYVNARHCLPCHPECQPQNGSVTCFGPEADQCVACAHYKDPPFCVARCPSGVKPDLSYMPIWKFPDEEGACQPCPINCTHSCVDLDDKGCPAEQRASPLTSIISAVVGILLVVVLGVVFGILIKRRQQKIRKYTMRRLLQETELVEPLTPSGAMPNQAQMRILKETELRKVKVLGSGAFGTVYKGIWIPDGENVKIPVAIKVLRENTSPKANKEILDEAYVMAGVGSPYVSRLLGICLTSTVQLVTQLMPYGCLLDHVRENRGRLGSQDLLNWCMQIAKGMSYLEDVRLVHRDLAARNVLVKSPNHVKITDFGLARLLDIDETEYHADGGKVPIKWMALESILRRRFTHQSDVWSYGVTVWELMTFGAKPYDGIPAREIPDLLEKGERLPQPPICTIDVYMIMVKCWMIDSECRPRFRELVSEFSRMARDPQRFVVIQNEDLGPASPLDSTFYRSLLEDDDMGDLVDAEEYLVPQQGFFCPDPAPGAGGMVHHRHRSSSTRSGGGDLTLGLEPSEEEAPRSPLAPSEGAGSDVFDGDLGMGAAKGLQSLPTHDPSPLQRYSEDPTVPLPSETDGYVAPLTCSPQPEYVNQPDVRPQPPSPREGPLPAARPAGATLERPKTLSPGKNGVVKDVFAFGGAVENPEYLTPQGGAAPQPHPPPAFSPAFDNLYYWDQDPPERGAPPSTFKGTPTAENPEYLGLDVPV
The target in assay [3] is T1, Receptor tyrosine-protein kinase erbB-2. The experiment in a line: Inhibition of ERBB2 autophosphorylation Tyr 1139 residue in human BT474 cells at 2 to 14 uM after 12 hrs by Western blotting. Background: Immunoblotting shows a protein as a band on a membrane.
Assay [4] shares this target. The experiment in a line: Inhibition of full-length/His-tagged ERBB2 overexpressed in human MCF7 cells assessed as inhibition of AKT phosphorylation at 0.2 to 6 uM after 12 hrs by Western blot analysis. Format: cell-based.
Assay [5] has the same target. The assay can be described thus: Inhibition of truncated soluble ERBB2 expressed in human MCF7 cell lysate at 1 to 10 uM after mCherry fluorescence assay pretreated with canertinib before lysis. Format: cell-based.
For assay [6], the target named is Proto-oncogene tyrosine-protein kinase Src (Homo sapiens) (UniProt P12931). The assay can be described thus: Inhibition of SRC using biotinylated HNRNPK as substrate up to 6 uM by blotting method.
Assay [7] deals with T1, Receptor tyrosine-protein kinase erbB-2. The assay can be described thus: Inhibition of truncated soluble ERBB2 expressed in human MCF7 cell lysate at 1 to 10 uM after mCherry fluorescence assay. Format: cell-free.

The source made the active and inactive calls. The calls are words filed in the database; no cut-off is given here.

Consider `Cc1ccc(-c2nn(C(C)(C)C)c3ncnc(N)c23)cc1`, for which the inhibition entry in assay [1] was “Active”.
On to `CN(C)c1ccc(/C=C/c2ccc3ncnc(NCc4ccccc4)c3c2)cc1`, for which binding in assay [2] was characterised by a dissociation constant (Kd) of 2900 nM. In assay [3], this molecule yielded a Ki of 3100 nM. In addition, the inhibition entry in assay [4], in assay [5] and in assay [6] was “inactive” each time. Also, the inhibition entry in assay [7] is “Active”.
